# From patent US20220008401A1, “COMPOSITIONS AND METHODS FOR TREATING PULMONARY DISEASE WITH MATRIX METALLOPROTEINASE INHIBITORS” (DARSHA LLC, priority 2019, published 2022)
# Columns and labels:
# [1] = tested on: LPS injured mice; experiment: Pulmonary wet to dry ratio (edema), LPS-injured mice, single inhaled dose; assay type: in vivo, C57BL/6J mice; details: LPS 1.5 mg/kg; 24 hours later single aerosolized dose 35 mg/kg; right middle lobe; n=3/group (control 4.1, LPS 12.9)
# Experimental: (§1) We next determined if inhaled Compound 1 attenuated specific features of acute inflammatory lung injury that were also observed in response to LPS. Again, 12-week-old male C57BL/6J mice were intranasally instilled with LPS (1.5 mg/kg of 1 mg/ml solution in sterile PBS). 24 hours later, these mice received a single dose of aerosolized MMP inhibitor (Compound 1, dissolved in PBS, 35 mg/kg) or PBS alone and a tail vein injection of FITC labeled albumin (FITC-albumin). One hour following nebulization, the mice were sacrificed. The left lung was fixed in formalin from each animal, paraffin embedded, sectioned and stained with H&E to examine histological features indicative of lung injury. These were achieved by visually scoring each slide based on a lung injury scoring system developed by the American Thoracic Society for animal models of inflammatory lung injury.
# Edema was also assessed by determination of pulmonary wet to dry ratios. At the time of sacrifice the right middle lobe was removed from each animal and promptly weighed to obtain the wet weight. Thereafter, the lung tissue was dried in an oven at 65° C. for 72 hours and then weighed to obtain the dry weight.
# [2] = tested on: caspase 3/7; experiment: Caspase 3/7 activity assay on lung homogenate of LPS-injured mice; assay type: in vivo; details: LPS-CGS group, four inhaled doses q6h starting 24 hours after LPS, n≥4 (LPS-PBS 0.81±1.15)
# Experimental: It was also examined if Compound 1 would reduce the levels of apoptosis associated with injury by LPS. Because the time line of apoptosis takes hours, an additional set of mice were injured with LPS (1.5 mg/kg of 1 mg/ml solution in sterile PBS) followed by initiation of treatment with Compound 1 twenty four hours later. The mice received four doses of Compound 1 (one dose every six hours over a total duration of 24 hours in accordance with the treatment schedule described below with reference to FIG. 8B). The mice were sacrificed and their lungs were harvested and assessed for caspase 3 activity by western blot for cleaved caspase 3 and a caspase 3/7 activity assay obtained from ThermoFisher.
# FIG. 5B is the relative densitometric quantification of western blots for cleaved caspase 3: whole caspase ratio. […] FIG. 5C depicts the results of the caspase 3/7 activity assay performed on mouse lung homogenate. […] The increase in caspase 3/7 activity was attenuated by inhaled treatment with Compound 1. FIG. 5D depicts 20× images (570A, 570B, and 570C) of representative sections of lung tissue fluorescently stained for cleaved caspase-3 (red) and cell nuclei (blue) in a control lung tissue (570A), a lung tissue of a mouse treated with LPS only (570B), and lung tissue of a mouse treated with LPS and Compound 1 (570C) (n=3).
# [3] = tested on: integrin β1; experiment: Integrin β1 immunofluorescent staining of human neutrophils; assay type: cell-based; details: Compound 1 treatment for 1 hour, n=3, p<0.05
# Description: Regulation of cell motility by the integrin β1 subunit is well-documented in multiple cell types, with several lines of evidence indicating MMPs play a significant role in expression and cellular localization of integrin β1 during neutrophil migration (Dumin J A, et al. Pro-collagenase-1 (matrix metalloproteinase-1) binds the alpha(2)beta(1) integrin upon release from keratinocytes migrating on type I collagen. J Biol Chem 2001; 276(31); Ugarte-Berzal E, et al. A 17-residue sequence from the matrix metalloproteinase-9 (MMP-9) hemopexin domain binds alpha4beta1 integrin and inhibits MMP-9-induced functions in chronic lymphocytic leukemia B cells. J Biol Chem 2012; 287(33)). To determine if MMP inhibition by Compound 1 interfered with integrin β1 expression in human neutrophils, cells were seeded onto glass chamber slides followed by Compound 1 treatment for 1 hour. Cells were fixed and immunofluorescent staining was performed for integrin β1 and staining intensity was measured using NIH ImageJ and standardized to the number of cells per field.
# [4] = tested on: LPS injured mice; experiment: Lung injury score (LIS) and H&E sections, LPS-injured mice, q6h x 4 doses; assay type: in vivo
# [5] = tested on: LPS injured mice; experiment: FITC-albumin BALF:serum ratio (vascular permeability/edema), LPS-injured mice, single inhaled dose; assay type: in vivo, C57BL/6J mice; details: LPS 1.5 mg/kg; 24 hours later single aerosolized dose 35 mg/kg; sacrifice one hour after; n=6/group (control 0.44, LPS 1.1)
# Experimental: as §1
# Tissue edema was assessed using two methods. First, serum and BALF fluid were collected from mice and FITC-albumin levels were measured in each using a fluorescent microplate reader. Fluid leakage into injured lungs is indicative of increased vascular permeability and could be indicative of edema. A greater fluid leakage would also be characterized by increased levels of FITC-albumin in the BALF. To determine the level of vascular permeability and edema, the ratio of BALF FITC-albumin to serum FITC-albumin was calculated. […]
# [6] = target: MMP 9 (Mus musculus, UniProt P41245); experiment: MMP-9 Quantikine assay on lung homogenates of LPS-injured mice; assay type: in vivo; design: One-hour post-Compound 1 treatment lung homogenates were collected and analyzed; from tissue; host or cells: lung tissue homogenate of LPS-injured mice
# Experimental: Inhibition of MMP-9 by inhaled Compound 1 treatment was assessed using a Quantikine Assay (R&D systems). Mice were injured by nasal instillation of LPS followed by treatment with inhaled PBS or Compound 1 (5 mg/mL). One-hour post-Compound 1 treatment lung homogenates were collected and analyzed.
# [7] = tested on: LPS injured mice; experiment: FITC-albumin exclusion assay (BALF:serum), LPS-injured mice, q6h x 4 doses; assay type: in vivo; details: LPS then inhaled Compound 1 every 6 hours for 4 doses; n=5 (LPS alone 1.04±0.13, PBS 0.44±0.11)
# Experimental: Based on the data, the effect of a 6 hour dosing interval (q6h) of Compound 1 on injured mice lung was explored. FIG. 8B schematizes the experimental LPS injury/Compound 1 treatment workflow utilized unless otherwise indicated. Briefly, mice were nasally instilled with LPS (1.5 mg/kg) followed by initiation of Compound 1 treatment 24 hours later (i.e., after a 24 hours rest period). Four doses of Compound 1 (12 mg/kg) were administered via nebulizer every 6 hours to maintain a constant presence of compound in the lung. PBS was administered as a control. Mice were sacrificed 6 hours following the fourth dose. It was next determined if LPS induced edema was a result of increased permeability of the pulmonary vascular barrier. This was achieved using a FITC-albumin exclusion assay. Approximately 1 hour prior to sacrifice, mice received a tail vein injection of 3 mg of FITC labeled albumin. BALF and serum were collected and the amount of labeled albumin in each sample (BALF FITC Albumin:serum FITC Albumin) was determined using a fluorescent plate reader.
# MMP 9, sequence (P41245 108-730): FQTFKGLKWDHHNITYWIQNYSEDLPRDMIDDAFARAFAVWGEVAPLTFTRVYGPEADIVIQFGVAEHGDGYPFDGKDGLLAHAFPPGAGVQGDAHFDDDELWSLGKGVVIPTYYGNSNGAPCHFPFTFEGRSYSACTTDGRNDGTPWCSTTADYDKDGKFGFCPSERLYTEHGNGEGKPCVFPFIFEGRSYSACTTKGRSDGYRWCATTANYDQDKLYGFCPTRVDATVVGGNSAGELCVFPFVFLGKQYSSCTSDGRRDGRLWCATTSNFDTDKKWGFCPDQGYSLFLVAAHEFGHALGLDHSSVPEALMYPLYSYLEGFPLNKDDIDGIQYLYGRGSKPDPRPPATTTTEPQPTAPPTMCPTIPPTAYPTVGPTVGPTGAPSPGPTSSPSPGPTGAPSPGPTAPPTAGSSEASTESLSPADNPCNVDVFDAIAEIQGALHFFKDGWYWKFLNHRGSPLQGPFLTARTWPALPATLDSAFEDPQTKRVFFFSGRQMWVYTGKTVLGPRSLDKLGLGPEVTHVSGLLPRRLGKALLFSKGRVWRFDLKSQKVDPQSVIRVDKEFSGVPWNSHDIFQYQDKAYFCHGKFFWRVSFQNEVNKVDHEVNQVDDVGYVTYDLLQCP
substance,measurement,setting,value
"butanamide, N-hydroxy-2-[[(4-hydroxyphenyl)sulfonyl](3-pyridinylmethyl)amino]-3-methyl, hydrochloride, (2R) [Compound 1]",pulmonary wet:dry ratio,[1],7.3
same,caspase 3/7 activity,[2],0.05 ± 0.16 µM
same,integrin β1 fluorescence intensity per cell,[3],2.88±1.23 RFU
same,Lung Injury Score (LIS),"[4]; LPS 1.5 mg/kg, four doses (12 mg/kg) via nebulizer every 6 hours from 24 hours after LPS, n=5 (LPS only 0.524±0.054, PBS only 0.188±0.025)",0.277±0.031 LIS
same,inflammation in H&E stained lung sections (qualitative),"[4]; LPS then four nebulized doses every 6 hours, vs mice only receiving LPS",reduced inflammation
same,ratio of BALF FITC-albumin to serum FITC-albumin,[5],0.49
same,MMP-9 activity (Quantikine),"[6]; LPS nasal instillation then inhaled Compound 1 (5 mg/mL), lung homogenates one hour post-treatment, n=6 (LPS 9260±1173, PBS 2388±370)",3614±442.1 RFU
same,MMP-9 levels in whole lung homogenate,"[6]; LPS-injured, Compound 1 treated animals",decreased significantly
same,FITC-albumin BALF:serum ratio,[7],0.49±0.13
